# Data: BindingDB's records for doi:10.1021/jm990447m (Metabasis Therapeutics, 2000)
# Assay: Evaluated for the inhibition of porcine heart or human L-type Adenosine 5'-monophosphate deaminase (AMPDA)
row,Ki [µM],SMILES
1,20,"COC(=O)CCCCCCCn1cnc2c1N=CNCC2O (stereo unspecified) [8-(8-Hydroxy-7,8-dihydro-6H-imidazo[4,5-d][1,3]diazepin-3-yl)-octanoic acid methyl ester]"
2,8,"O=C(O)CCCCCCCn1cnc2c1N=CNCC2O (stereo unspecified) [8-(8-Hydroxy-7,8-dihydro-6H-imidazo[4,5-d][1,3]diazepin-3-yl)-octanoic acid]"
3,10,"CCCCCCCn1cnc2c1N=CNCC2O (stereo unspecified) [3-Heptyl-3,6,7,8-tetrahydro-imidazo[4,5-d][1,3]diazepin-8-ol]"
4,18,"CCCCCCCCn1cnc2c1N=CNCC2O (stereo unspecified) [3-Octyl-3,6,7,8-tetrahydro-imidazo[4,5-d][1,3]diazepin-8-ol 0.25H2O]"
5,170,"N#CCCCCCCn1cnc2c1N=CNCC2O (stereo unspecified) [7-(8-Hydroxy-7,8-dihydro-6H-imidazo[4,5-d][1,3]diazepin-3-yl)-heptanenitrile]"
6,85,"O=C(O)CCCOCn1cnc2c1N=CNCC2O (stereo unspecified) [Sodium; 4-(8-hydroxy-7,8-dihydro-6H-imidazo[4,5-d][1,3]diazepin-3-ylmethoxy)-butyrate H2O]"
